Assay results from patent US20250281740A1, “Electroporation process for delivering a composition comprising at least one peptide of molecular weight ranging from 500 Da to 20 kDa” (L'OREAL, priority 2021, published 2025).

Assay: penetration into a human skin sample, topical application versus application combined with electroporation, amount determined by ELISA
Assay type: in vitro ADME
From the text: To test the effect of the device, a sample of human skin is peripherally attached to a support, with the counterelectrode of the electroporation device placed between the inner face of the skin and the support. The electrode of the electroporation device is placed in contact with the outer face of the skin sample. The case of the electroporation device is immobilized by a support. The support is placed on an orbital shaker, so that the electrode moves over the surface of the skin. The device used in this example is a BTX Gemini X2 programmable signal generator (Harvard Instruments). The electroporation treatment time is about 1 minute. It consists of 81 pulses of 10 ms each, with rest periods of 500 ms between the pulses. The polarity chosen is negative, i.e. the electrode is at a negative potential relative to the counterelectrode. On the skin, the voltage between the electrode and the counterelectrode is about 40 V. 50 μl of […] are applied before the device is placed in position (corresponding to 100 μl/cm^2). […] Results The skin is removed from the experimental system and then analysed to determine the amount of N-acetyl-3-trifluoromethyl-phenyl-(valine-glycine) which has penetrated, via an ELISA technique.

Compound: CC(=O)N(c1cccc(C(F)(F)F)c1)C(C(=O)NCC(=O)O)C(C)C (centres unmarked) [N-acetyl-3-trifluoromethyl-phenyl-(valine-glycine)]
- amount that has penetrated into the skin (electroporation process (81 pulses of 10 ms, 500 ms rest, about 40 V, negative polarity) compared with topical application of an identical composition, 1% formulations 1 and 2, 100 μl/cm^2, FIG. 4): much higher
- amount that has penetrated into the skin (FIG. 5) (electroporation process compared with topical application of an identical composition, FIG. 5): log higher
